Experimental data reported in patent publication US20240059728A1, “NOVEL GALACTOSIDE INHIBITOR OF GALECTINS” (GALECTO BIOTECH AB, priority 2021, published 2024).

Assays:
Galectin-3 = Galectin-3 (Homo sapiens (Human), UniProt P17931); assay: fluorescence anisotropy assay, galectin-3; assay type: binding; settings: inhibition of the interaction between galectin and a fluorescein tagged saccharide probe
Protocol: (§1) The affinity of Example 1-14 for galectins were determined by a fluorescence anisotropy assay where the compound was used as an inhibitor of the interaction between galectin and a fluorescein tagged saccharide probe as described Sörme, P., Kahl-Knutsson, B., Huflejt, M., Nilsson, U. J., and Leffler H. (2004) Fluorescence polarization as an analytical tool to evaluate galectin-ligand interactions. Anal. Biochem. 334: 36-47, (Sarme et al., 2004) and Monovalent interactions of Galectin-1 By Salomonsson, Emma; Larumbe, Amaia; Tejler, Johan; Tullberg, Erik; Rydberg, Hanna; Sundin, Anders; Khabut, Areej; Frejd, Torbjorn; Lobsanov, Yuri D.; Rini, James M.; et al, From Biochemistry (2010), 49(44), 9518-9532, (Salomonsson et al., 2010).

Galectin-1 = Galectin-1 (Homo sapiens (Human), UniProt P09382); assay: fluorescence anisotropy assay, galectin-1; assay type: binding; settings: inhibition of the interaction between galectin and a fluorescein tagged saccharide probe
Chain of Galectin-1 (P09382 whole entry): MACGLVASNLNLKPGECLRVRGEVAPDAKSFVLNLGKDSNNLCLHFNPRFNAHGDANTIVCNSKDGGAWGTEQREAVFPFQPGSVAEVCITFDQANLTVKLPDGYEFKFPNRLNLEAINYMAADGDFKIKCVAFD
Protocol: as §1

Chain of Galectin-3 (P17931 whole entry): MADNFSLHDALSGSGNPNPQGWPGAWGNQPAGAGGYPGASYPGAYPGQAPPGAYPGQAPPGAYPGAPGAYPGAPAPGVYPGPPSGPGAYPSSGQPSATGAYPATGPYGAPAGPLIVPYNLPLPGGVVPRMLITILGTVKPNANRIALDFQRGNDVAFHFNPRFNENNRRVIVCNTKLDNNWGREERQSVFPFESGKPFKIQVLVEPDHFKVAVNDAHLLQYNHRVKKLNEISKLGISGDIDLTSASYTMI

Row | Kd (Galectin-3) | Kd (Galectin-1) | Structure (SMILES)
1 | 0.4 nM | 3 nM | OCC1O[C@@H](S[C@@H]2O[C@H](CO)C(O)C(n3cc(-c4csc(O)n4)nn3)[C@H]2O)C(O)[C@@H](n2cc(-c3cc(F)c(F)c(F)c3)nn2)[C@H]1O (stereo partly drawn) [Example 1, 3,3′-Dideoxy-3-[4-(3,4,5-trifluorophenyl)-1H-1,2,3-triazol-1-yl]-3′-[4-(2-hydroxythiazol-4-yl)-1H-1,2,3-triazol-1-yl]-1,1′-sulfanediyl-di-β-D-galactopyranoside]
2 | 0.3 nM | 4 nM | OCC1O[C@@H](S[C@@H]2O[C@H](CO)C(O)C(n3cc(-c4csc(O)n4)nn3)[C@H]2O)C(O)[C@@H](n2cc(-c3cc(F)c(Cl)c(F)c3)nn2)[C@H]1O (stereo partly drawn) [Example 2, 3-[4-(4-Chloro-3,5-difluorophenyl)-1H-1,2,3-triazol-1-yl]-3,3′-dideoxy-3′-[4-(2-hydroxythiazol-4-yl)-1H-1,2,3-triazol-1-yl]-1,1′-sulfanediyl-di-β-D-galactopyranoside]
3 | 1 nM | 9 nM | Nc1nc(-c2cn(C3C(O)[C@@H](CO)O[C@@H](S[C@@H]4OC(CO)[C@H](O)[C@H](n5cc(-c6cc(F)c(Cl)c(F)c6)nn5)C4O)[C@@H]3O)nn2)cs1 (stereo partly drawn) [Example 3, 3′-[4-(2-Aminothiazol-4-yl)-1H-1,2,3-triazol-1-yl]-3-[4-(4-chloro-3,5-difluorophenyl)-1H-1,2,3-triazol-1-yl]-3,3′-dideoxy-1,1′-sulfanediyl-di-β-D-galactopyranoside]
4 | 12 nM | 450 nM | OCC1O[C@@H](S[C@@H]2O[C@H](CO)C(O)C(n3cc(-c4ccc(Cl)c(F)c4F)nn3)[C@H]2O)C(O)[C@@H](n2cc(-c3ccc(Cl)c(F)c3F)nn2)[C@H]1O (stereo partly drawn) [Example 14, 1,1′-Sulfanediyl-bis-{3-[4-(4-chloro-2,3-difluorophenyl)-1H-1,2,3-triazol-1-yl]-3-deoxy-β-D-galactopyranoside}]
